Columns and labels:
KDM5A [1] = molecular target: T1, KDM5A (Homo sapiens, UniProt P29375); experiment: KDM5A Demethylase Assay (TR-FRET Assay-C); type: biochemical; conditions: full length recombinant Flag tagged KDM5A, 2 nM, HEPES pH 7.0, 1 μM α-ketoglutarate, read-out: C KDM5A HTRF (IC50)
T1 construct: Full length recombinant Flag tagged KDM5A protein was purified from Sf9 insect cells; Flag; made in house; host or cells: Sf9 insect cells
Procedure: Full length recombinant Flag tagged KDM5A protein was purified from Sf9 insect cells. The demethylation reaction buffer contained 50 mM HEPES pH 7.0, 0.01% Triton X-100, 0.5 mM ascorbate, 2 mM DTT, 1 μM α-ketoglutarate, and 100 μM Fe2(NH4)2(SO4)2. In a 10 μL demethylation reaction system, 2 nM recombinant KDM5A was added to compounds in the above buffer (Vt 5 uL) in a 384 well Proxi Plate (Perkin Elmer Corp.) and then 0.1 μM biotinylated H3K9me1 peptide (1-21 aa, New England Peptide, Vt 5 uL) was added to initiate the reaction (Vt 10 uL). (All protein/reagent concentrations are final concentrations.) Reactions were incubated for 30 minutes at room temperature, and then quenched by addition of 5 uL stop buffer (3 mM EDTA, 50 mM TrisCl pH 7.5, 0.01% Triton X-100, 0.01 mg/mL BSA) followed by addition of 5 uL of detection reagents (buffer as above without EDTA but with addition of 200 nM SA-XL665 (CisBio) and 2 nM Eu(W1024)-anti-H3K4Me1-2 antibody (PerkinElmer)). After a 30 minute incubation assays were read on a Perkin-Elmer Envision equipped with appropriate filters. IC50s were calculated using standard dose-response equations and relative to a Max (no inhibition) and Min (no enzyme or quenched enzyme) controls.

KDM5A [2] = molecular target: T1, KDM5A; experiment: KDM5A Demethylase Assay (MassSpec Assay-A); type: biochemical; conditions: full length recombinant Flag tagged KDM5A, 20 nM; MassSpec readout; biotinylated H3K9me1 peptide 4.0 μM; read-out: A KDM5A MS (IC50)
Procedure: Full length recombinant Flag tagged KDM5A protein was purified from […] insect cells. The demethylation reaction buffer contained 50 mM TrisCl pH 7.4, 0.01% Triton X-100, 0.025 mg/mL BSA, 1 mM ascorbate (Cat# A4034, Sigma Aldrich), 2 mM TCEP (Cat# D9779, Sigma Aldrich), 2.0 μM α-ketoglutarate (# K2010, Sigma Aldrich) and 50 μM Fe2(NH4)2(SO4)2 (Cat# F1543, Sigma Aldrich). In a 25 μL demethylation reaction system, 20 nM recombinant KDM5A and was incubated with compounds for 10 minutes in the above buffer, and then […] (# K2010, Sigma Aldrich), 4.0 μM biotinylated H3K9me1 peptide (1-21 aa), and Fe2(NH4)2(SO4)2 were added to initiate the reaction. (All reagent concentrations are final reagent concentrations.) Reactions were incubated for 30 minutes at room temperature, and then quenched by addition of an equal volume of 1% formic acid. After termination, plates were sealed and frozen at −80° C. for analysis.

T1 sequence (P29375 whole entry): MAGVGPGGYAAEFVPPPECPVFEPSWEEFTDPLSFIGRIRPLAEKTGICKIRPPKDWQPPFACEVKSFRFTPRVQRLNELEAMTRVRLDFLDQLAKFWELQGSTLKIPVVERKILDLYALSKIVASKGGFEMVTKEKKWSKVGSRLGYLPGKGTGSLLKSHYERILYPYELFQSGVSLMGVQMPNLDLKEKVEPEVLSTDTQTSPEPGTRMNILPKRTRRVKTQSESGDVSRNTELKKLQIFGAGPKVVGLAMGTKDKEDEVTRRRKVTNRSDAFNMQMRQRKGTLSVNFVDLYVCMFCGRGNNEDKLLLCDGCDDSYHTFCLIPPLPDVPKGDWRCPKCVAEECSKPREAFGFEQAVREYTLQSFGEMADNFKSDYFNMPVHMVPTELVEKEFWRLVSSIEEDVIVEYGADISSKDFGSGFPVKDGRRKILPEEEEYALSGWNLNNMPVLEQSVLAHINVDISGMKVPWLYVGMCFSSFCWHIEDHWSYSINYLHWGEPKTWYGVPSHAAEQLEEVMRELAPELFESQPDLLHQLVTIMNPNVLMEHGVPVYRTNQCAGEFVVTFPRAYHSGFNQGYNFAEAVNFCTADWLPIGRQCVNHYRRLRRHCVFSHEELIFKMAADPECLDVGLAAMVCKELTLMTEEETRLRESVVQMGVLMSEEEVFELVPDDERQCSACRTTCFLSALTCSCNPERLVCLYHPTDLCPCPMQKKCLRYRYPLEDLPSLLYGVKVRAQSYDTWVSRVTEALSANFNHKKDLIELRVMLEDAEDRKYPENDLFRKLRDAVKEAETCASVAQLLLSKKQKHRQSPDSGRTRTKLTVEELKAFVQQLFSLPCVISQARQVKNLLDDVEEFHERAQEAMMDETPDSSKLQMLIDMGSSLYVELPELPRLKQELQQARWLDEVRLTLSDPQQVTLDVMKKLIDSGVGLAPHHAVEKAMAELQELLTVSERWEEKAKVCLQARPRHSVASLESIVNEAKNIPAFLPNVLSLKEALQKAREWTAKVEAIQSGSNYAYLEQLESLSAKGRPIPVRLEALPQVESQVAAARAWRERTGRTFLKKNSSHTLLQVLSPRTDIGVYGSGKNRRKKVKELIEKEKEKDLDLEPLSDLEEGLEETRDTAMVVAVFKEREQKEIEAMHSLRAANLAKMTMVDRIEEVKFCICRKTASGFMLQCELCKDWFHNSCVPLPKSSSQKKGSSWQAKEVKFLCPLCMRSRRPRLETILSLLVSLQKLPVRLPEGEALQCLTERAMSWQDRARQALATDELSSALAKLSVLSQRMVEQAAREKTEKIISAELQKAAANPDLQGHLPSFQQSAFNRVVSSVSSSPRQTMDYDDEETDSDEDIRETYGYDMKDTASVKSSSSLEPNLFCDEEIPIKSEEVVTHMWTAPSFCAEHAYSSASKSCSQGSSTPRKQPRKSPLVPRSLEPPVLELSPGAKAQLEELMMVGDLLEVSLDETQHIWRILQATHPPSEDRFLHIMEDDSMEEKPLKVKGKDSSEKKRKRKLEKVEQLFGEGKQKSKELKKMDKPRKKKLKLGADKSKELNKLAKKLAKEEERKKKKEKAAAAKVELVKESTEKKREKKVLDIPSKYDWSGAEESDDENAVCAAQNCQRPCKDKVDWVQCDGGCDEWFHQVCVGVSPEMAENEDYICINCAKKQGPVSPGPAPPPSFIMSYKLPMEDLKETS

Structure (SMILES) | IC50 (KDM5A [1]) | IC50 (KDM5A [2])
Cc1ccc(-n2cc(-c3cnn4c(=O)c(C5CC5)c(C)[nH]c34)cn2)nc1 [Example 27, 6-cyclopropyl-5-methyl-3-(1-(5-methylpyridin-2-yl)-1H-pyrazol-4-yl)pyrazolo[1,5-a]pyrimidin-7(4H)-one] | 33.2 nM | 
O=c1c2c([nH]c3c(-c4cnn(-c5ccccn5)c4)cnn13)CCC2 [Example 42, 3-(1-(pyridin-2-yl)-1H-pyrazol-4-yl)-6,7-dihydro-4H-cyclopenta[d]pyrazolo[1,5-a]pyrimidin-8(5H)-one] | 32.2 nM | 
Cc1[nH]c2c(-n3cnc(-c4ccccn4)c3)cnn2c(=O)c1C(C)C [Example 46, 6-isopropyl-5-methyl-3-(4-(pyridin-2-yl)-1H-imidazol-1-yl)pyrazolo[1,5-a]pyrimidin-7(4H)-one] | 23.4 nM | 
CCc1c(-c2ccccc2)[nH]c2c(-n3ccnc3)cnn2c1=O [Example 79, 6-ethyl-3-(1H-imidazol-1-yl)-5-phenylpyrazolo[1,5-a]pyrimidin-7(4H)-one] |  | 43200 nM
CCc1c(C)[nH]c2c(-n3cnc4ccccc43)cnn2c1=O [Example 82, 3-(1H-benzo[d]imidazol-1-yl)-6-ethyl-5-methylpyrazolo[1,5-a]pyrimidin-7(4H)-one] |  | 80000 nM

The next lines start with the values.

IC50 (KDM5A [1]) | IC50 (KDM5A [2]) | Structure (SMILES)
 | 26.3 nM | CCc1c(C)[nH]c2c(-c3cnn(-c4cc(C)ccn4)c3)cnn2c1=O [Example 71, 6-ethyl-5-methyl-3-(1-(4-methylpyridin-2-yl)-1H-pyrazol-4-yl)pyrazolo[1,5-a]pyrimidin-7(4H)-one]
 | 76 nM | CCc1c(C)[nH]c2c(-c3cnn(-c4cnccn4)c3)cnn2c1=O [Example 72, 6-ethyl-5-methyl-3-(1-(pyrazin-2-yl)-1H-pyrazol-4-yl)pyrazolo[1,5-a]pyrimidin-7(4H)-one]
 | 53.7 nM | Cc1[nH]c2c(-n3cnc(-c4ccccn4)c3)cnn2c(=O)c1C [Example 73, 5,6-dimethyl-3-(4-(pyridin-2-yl)-1H-imidazol-1-yl)pyrazolo[1,5-a]pyrimidin-7(4H)-one]
 | 996 nM | CCc1c(C)[nH]c2c(-n3cnc(C(=O)NC)c3)cnn2c1=O [Example 74, 1-(6-ethyl-5-methyl-7-oxo-4,7-dihydropyrazolo[1,5-a]pyrimidin-3-yl)-N-methyl-1H-imidazole-4-carboxamide]
 | 178 nM | CCc1c(C)[nH]c2c(-n3cnc(C(=O)N(C)C)c3)cnn2c1=O [Example 75, 1-(6-ethyl-5-methyl-7-oxo-4,7-dihydropyrazolo[1,5-a]pyrimidin-3-yl)-N,N-dimethyl-1H-imidazole-4-carboxamide]
 | 3380 nM | CCc1c(C)[nH]c2c(-n3ccnc3C)cnn2c1=O [Example 77, 6-ethyl-5-methyl-3-(2-methyl-1H-imidazol-1-yl)pyrazolo[1,5-a]pyrimidin-7(4H)-one]
 | 29400 nM | CCc1c(C)[nH]c2c(-n3cnc(I)c3)cnn2c1=O [Example 80, 6-ethyl-3-(4-iodo-1H-imidazol-1-yl)-5-methylpyrazolo[1,5-a]pyrimidin-7(4H)-one]
 | 3050 nM | CCc1c(C)[nH]c2c(-n3cncc3I)cnn2c1=O [Example 81, 6-ethyl-3-(5-iodo-1H-imidazol-1-yl)-5-methylpyrazolo[1,5-a]pyrimidin-7(4H)-one]

From US9505767B2, “Pyrazolo[1,5-A]pyrimidin-7(4H)-onehistone demethylase inhibitors” (Genentech, Inc., priority 2013, dated 2016)
